Measurements as given in the NIST ThermoML archive (doi:10.1016/j.jct.2015.02.007).
± gives the expanded uncertainty stated by the source.

Experiments:
[1] = 100 kPa, Liquid; for mass density: Vibrating tube method
[2] = xn = mol fraction of the nth substance listed; conditions: 100 kPa, Liquid, x2 = 0; for mass density: Vibrating tube method

mass density ([1]; 278.15 K) [kg/m3] | mass density ([1]; 283.15 K) [kg/m3] | speed of sound ([1]; 318.15 K, Pulse-echo method) [m/s] | mass density ([1]; 323.15 K) [kg/m3] | mass density ([1]; 328.15 K) [kg/m3] | mass density ([1]; 333.15 K) [kg/m3] | mass density ([2]; 278.15 K) [kg/m3] | mass density ([2]; 283.15 K) [kg/m3] | speed of sound ([2]; 318.15 K, Pulse-echo method) [m/s] | mass density ([2]; 323.15 K) [kg/m3] | mass density ([2]; 328.15 K) [kg/m3] | mass density ([2]; 333.15 K) [kg/m3] | Compound
999.965 ± 0.11 | 999.698 ± 0.11 | 1536.7 ± 0.99 | 988.027 ± 0.11 | 985.682 ± 0.11 | 983.186 ± 0.11 | – | – | – | – | – | – | O [water]
– | – | – | – | – | – | 999.965 ± 0.11 | 999.698 ± 0.11 | 1536.7 ± 0.99 | 988.027 ± 0.11 | 985.682 ± 0.11 | 983.186 ± 0.11 | O [water] + OCCOCCOCCOCCO
